Article PMC4518038, “Identification of a Class of Protein ADP-Ribosylating Sirtuins in Microbial Pathogens” (Molecular Cell, 2015)

What was measured:
[1] = target: T1, LplA2 (S. pyogenes) (Streptococcus pyogenes, UniProt P0DN72); assay: lipoylation of GcvH-L, anti-lipoyl immunoblot; type: biochemical; settings: co-substrate SpyGcvH-L; 1 uM LplA, 2 uM target protein, 30 min, 30 C
T1 construct: gene lplA

[2] = target: T2, SauLplA1 (Staphylococcus aureus, UniProt A0A0H3JR16); settings: co-substrate SauGcvH or SauGcvH-L; 1 uM LplA, 2 uM target protein, 30 min, 30 C
T2 construct: gene SAV1028
T2 sequence (A0A0H3JR16 whole entry): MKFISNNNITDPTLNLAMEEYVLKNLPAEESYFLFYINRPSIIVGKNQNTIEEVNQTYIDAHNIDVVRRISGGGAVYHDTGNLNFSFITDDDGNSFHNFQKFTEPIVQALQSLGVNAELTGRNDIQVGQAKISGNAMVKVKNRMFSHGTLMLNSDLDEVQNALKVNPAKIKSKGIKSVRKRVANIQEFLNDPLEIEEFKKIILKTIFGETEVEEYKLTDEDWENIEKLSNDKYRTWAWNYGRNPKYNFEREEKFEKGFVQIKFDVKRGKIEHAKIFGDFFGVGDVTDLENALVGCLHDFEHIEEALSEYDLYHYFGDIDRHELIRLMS

[3] = target: T3, SauLplA2 (Staphylococcus aureus, UniProt A0A0H3JX98); assay: lipoylation of GcvH-L, anti-lipoyl immunoblot; type: biochemical; settings: co-substrate SauGcvH-L; 1 uM LplA, 2 uM target protein, 30 min, 30 C
T3 construct: gene SAV0327
T3 sequence (A0A0H3JX98 1-340): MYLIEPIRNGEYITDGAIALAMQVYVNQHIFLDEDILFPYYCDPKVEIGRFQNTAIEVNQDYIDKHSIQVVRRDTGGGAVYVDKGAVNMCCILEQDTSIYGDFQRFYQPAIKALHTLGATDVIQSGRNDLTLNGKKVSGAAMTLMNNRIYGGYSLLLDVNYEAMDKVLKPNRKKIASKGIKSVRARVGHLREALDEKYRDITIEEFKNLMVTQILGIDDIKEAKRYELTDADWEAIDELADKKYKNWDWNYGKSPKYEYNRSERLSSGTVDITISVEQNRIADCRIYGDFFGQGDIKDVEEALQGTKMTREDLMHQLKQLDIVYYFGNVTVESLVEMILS

[4] = target: T4, EcoLplA (Escherichia coli, UniProt P32099); assay: lipoylation of GcvH / GcvH-L, anti-lipoyl immunoblot; type: biochemical; settings: co-substrate EcoGcvH, SauGcvH or SauGcvH-L; 1 uM LplA, 2 uM target protein, 30 min, 30 C
T4 construct: gene lplA
T4 sequence (P32099 2-338): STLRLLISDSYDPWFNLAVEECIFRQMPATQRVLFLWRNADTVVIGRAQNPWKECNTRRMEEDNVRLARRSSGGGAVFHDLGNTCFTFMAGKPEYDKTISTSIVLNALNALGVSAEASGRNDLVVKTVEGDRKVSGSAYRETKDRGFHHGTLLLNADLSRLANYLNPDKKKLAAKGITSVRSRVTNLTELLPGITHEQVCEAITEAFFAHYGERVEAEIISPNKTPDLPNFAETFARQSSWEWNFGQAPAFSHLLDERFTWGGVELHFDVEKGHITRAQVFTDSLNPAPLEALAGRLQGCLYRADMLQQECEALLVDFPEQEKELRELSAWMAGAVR

[5] = target: T5, SpySirTM (Streptococcus pyogenes, UniProt P0DN71); assay: X-ray crystallography (crystal soak); type: binding; settings: 1 mM ligand soak, 10 min; 2.03 A; active site; also ADP-ribosyl donor for lipoylated GcvH-L
T5 construct: gene SpyM50869; crystal model residues 3-292 (7-10 not visible)
T5 sequence (P0DN71 whole entry, the tested form may be a part): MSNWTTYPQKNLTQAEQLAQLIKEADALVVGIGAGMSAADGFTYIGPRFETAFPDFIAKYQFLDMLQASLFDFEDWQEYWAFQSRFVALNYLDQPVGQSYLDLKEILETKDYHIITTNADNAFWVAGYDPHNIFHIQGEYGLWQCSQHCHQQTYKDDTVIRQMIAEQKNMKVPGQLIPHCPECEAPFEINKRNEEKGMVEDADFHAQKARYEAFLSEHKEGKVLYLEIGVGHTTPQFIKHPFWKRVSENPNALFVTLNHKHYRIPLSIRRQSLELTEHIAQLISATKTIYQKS

T1 sequence (P0DN72 whole entry): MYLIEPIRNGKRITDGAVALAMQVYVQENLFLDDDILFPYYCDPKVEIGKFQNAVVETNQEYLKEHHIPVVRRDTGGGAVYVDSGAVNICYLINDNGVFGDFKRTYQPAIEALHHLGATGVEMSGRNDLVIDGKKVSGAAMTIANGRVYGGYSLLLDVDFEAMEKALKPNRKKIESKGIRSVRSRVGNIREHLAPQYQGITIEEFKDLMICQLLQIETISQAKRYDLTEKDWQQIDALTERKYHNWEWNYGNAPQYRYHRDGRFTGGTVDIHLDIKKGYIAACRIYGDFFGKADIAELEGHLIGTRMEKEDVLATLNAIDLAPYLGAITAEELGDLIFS

Structure (SMILES)	lipoylation of GcvH-L, anti-lipoyl immunoblot [1]	lipoylation of GcvH / GcvH-L, anti-lipoyl immunoblot [2]	lipoylation of GcvH-L, anti-lipoyl immunoblot [3]	lipoylation of GcvH / GcvH-L, anti-lipoyl immunoblot [4]	X-ray crystallography (crystal soak) [5]
O=C(O)CCCC[C@@H]1CCSS1 (racemic) [lipoic acid]	both operonal LplA2s efficiently transferred lipoic acid (LA) onto GcvH-L	SauLplA1 appears to be indiscriminative toward both S. aureus GcvHs	both operonal LplA2s efficiently transferred lipoic acid (LA) onto GcvH-L	EcoLplA readily modifies all three GcvHs	
NC(=O)c1ccc[n+]([C@@H]2O[C@H](COP(=O)(O)OP(=O)(O)OC[C@H]3O[C@@H](n4cnc5c(N)ncnc54)[C@H](O)[C@@H]3O)[C@@H](O)[C@H]2O)c1 [NAD^+]					The ligand-SpySirTM complexes reveal that the general mode of NAD^+ binding to SpySirTM is similar
